The structures appear in SMILES notation. “Also recorded” adds a separate entry of the source. Where two headings read alike, the source gives them in different places.

The text below walks through data of patent US5391554A, “Dihydro- and tetrahydronaphthyridines” (Warner-Lambert Company, priority 1992, dated 1995).

One data set deals with Rif-1 sarcoma. In words: In Vivo Assay for Radiosensitizing Activity (Rif-1 sarcoma). Further details: species or system mice. The settings on record: IP 30 minutes before first x-ray dose, Days 6-10 and 13-17, x-Ray only T-C 18 days. The procedure: Mice were implanted with 1.9×10^5 Rif-1 sarcoma cells on Day 0. Treatment was on Days 6-10 and 13-17. On each treatment day the tumor-bearing limb received two doses of 2.5 Gy X-irradiation separated by 3 hours. Test compound was administered IP 30 minutes prior to the first x-ray dose on each treatment day. Effectiveness is measured by the T-C, the difference in days for the treated and control tumors, respectively, to reach 1000 mg.

Data set [1] concerns the target T1, Poly (ADP-ribose) synthetase (Bos taurus, UniProt P18493).
T1 construct: Poly(ADP-ribose) synthetase from calf thymus; from tissue; host or cells: calf thymus
As to the kind of experiment: Inhibition of Poly (ADP-ribose) synthetase (ADPRP inhibition). In kind it is biochemical. The settings on record: [3H]NAD, calf thymus DNA and histone, pH 8.0, 30° C., 15 minutes. As to the method: Poly (ADP-ribose) synthetase is partially purified by the procedure of Shizuta, et al, up to and including the DNA-agarose column step. Active fractions are pooled and stored in small aliquots at -90° C. The specific activity was generally in the range of 25 U/rag protein, where one unit of enzyme activity is defined as the amount polymerizing 1 nmol of ADP-ribose moiety from [^3 H]NAD per minute at 30° C.
The enzyme assay is performed by placing the following in small glass tubes kept at 4° C.: 100 μL of buffer consisting of 0.5 M Tris-HCl pH 8.0, 50 mM MgCl2, and 5 mM dithiothreitol; 50 μL of 1 mM [adenine-2,8-^3 H]nicotinamide adenine dinucleotide at a concentration of 15 μCi/mL; 100 μL of calf thymus DNA (0.3 mg/mL in water); 50 μL of calf thymus histone (Sigma, Type IIA, 0.5 mg/mL); 50 μL of inhibitor or inhibitor solvent; 150 μL of enzyme (25 μg). The components are thoroughly mixed and warmed to 30° C. in a water bath. After 15 minutes the reaction is stopped by adding 2 mL of ice cold 15% trichloroacetic acid and the tubes are placed on ice for 15 minutes. The precipitate is collected on glass fiber filters and washed five times with ice-cold 15% trichloroacetic acid. The filters are dried and radioactivity determined in a liquid scintillation counter.

The test system of another data set is hypoxic tumor cells. The conditions noted are these: in vitro and in vivo, background, cited from earlier work.
The subject of the next data set is central nervous system. The conditions noted are these: cited from earlier work.
The subject of data set [2] is repair of damage caused by ionizing radiation. The settings on record: background; cited from earlier work.

T1 sequence (P18493 whole entry): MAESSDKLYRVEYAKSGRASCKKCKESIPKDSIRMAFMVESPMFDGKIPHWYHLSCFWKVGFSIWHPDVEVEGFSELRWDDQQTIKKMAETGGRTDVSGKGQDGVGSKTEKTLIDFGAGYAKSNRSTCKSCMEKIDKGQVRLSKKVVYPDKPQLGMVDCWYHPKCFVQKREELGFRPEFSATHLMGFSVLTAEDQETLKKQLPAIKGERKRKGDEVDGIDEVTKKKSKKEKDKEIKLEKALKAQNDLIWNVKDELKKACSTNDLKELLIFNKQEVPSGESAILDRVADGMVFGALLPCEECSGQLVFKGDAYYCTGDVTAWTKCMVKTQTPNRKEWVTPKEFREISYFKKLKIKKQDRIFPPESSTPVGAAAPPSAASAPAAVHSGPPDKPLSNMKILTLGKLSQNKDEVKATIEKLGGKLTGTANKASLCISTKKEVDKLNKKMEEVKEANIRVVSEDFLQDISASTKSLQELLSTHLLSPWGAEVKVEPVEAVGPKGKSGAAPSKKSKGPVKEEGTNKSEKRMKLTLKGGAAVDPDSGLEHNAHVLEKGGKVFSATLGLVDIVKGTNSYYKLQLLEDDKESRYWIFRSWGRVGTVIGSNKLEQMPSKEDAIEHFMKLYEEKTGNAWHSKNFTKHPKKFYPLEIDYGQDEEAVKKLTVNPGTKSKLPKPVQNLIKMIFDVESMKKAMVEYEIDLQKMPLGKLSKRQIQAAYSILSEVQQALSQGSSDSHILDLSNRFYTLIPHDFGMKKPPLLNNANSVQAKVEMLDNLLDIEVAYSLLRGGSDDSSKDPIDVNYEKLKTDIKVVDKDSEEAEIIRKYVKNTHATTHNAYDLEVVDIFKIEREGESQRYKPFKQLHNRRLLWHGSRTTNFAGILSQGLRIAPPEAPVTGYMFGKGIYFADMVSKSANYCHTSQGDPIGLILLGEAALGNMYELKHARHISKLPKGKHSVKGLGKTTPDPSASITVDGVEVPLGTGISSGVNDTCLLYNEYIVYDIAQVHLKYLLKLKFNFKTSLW

By IC50 is commonly meant the point on the concentration scale where inhibition reaches its midpoint. For the molecule `O=C1NCCc2ncccc21` [Compound 13, 7,8-Dihydro-1,6-naphthyridin-5(6H)-one], the “T-C (days for treated minus control tumors to reach 1000 mg)” value with Rif-1 sarcoma (500 mg/kg/inj + x-Ray (2.5 Gy × 2)) came out at 26 days. The molecule also returned an IC50 in data set [1] of 2500 nM. Turning to `O=c1[nH]cc(Br)c2ncccc12` [Compound 5, 8Bromo-1,6-naphthyridine-5(6H) -one], the IC50 in data set [1] lay in the range of 1000 to 10000 nM. On the same count and under the same terms, to `C[n+]1cccc2c(=O)[nH]ccc21` [Compound 7, 5,6-Dihydro-1-methyl-5-oxo-1,6-naphthyridin-1-ium monoiodide] belongs 10000 to 100000 nM. As to `Cc1ncc([N+](=O)[O-])n1CCO` [metronidazole, 2-methyl-5-nitro-1H-imidazole-1-ethanol], the radiosensitizing activity entry with hypoxic tumor cells is “effective as radiosensitizers for hypoxic cells in vivo”; in the data set on hypoxic tumor cells (listed as Metronidazole), “active both in vitro and in vivo as a radiosensitizer”. Besides, the CNS side effects result in the data set on central nervous system (mouse, in vivo) was “peripheral neuropathy effects and convulsions in mice”.

Turning to `NC(=O)c1cccc(N)c1` [3-aminobenzamide], in data set [2], the “sensitization to lethal effects of radiation / inhibition of repair” value is “inhibit this postirradiation repair process; also recorded: repair of damage caused by exposure to DNA-damaging agents such as ionizing radiation, was inhibited”. On to `CN1CCCc2c1cc[nH]c2=O` [Compound 8, 1,2,3,4-Tetrahydro-1-methyl-1,6-naphthyridin-5 (6H) one], for which, in the data set with Rif-1 sarcoma (340 mg/kg/inj + x-Ray (2.5 Gy × 2)), the “T-C (days for treated minus control tumors to reach 1000 mg)” value amounted to 38 days. Further, in data set [1], the midpoint of inhibition, the IC50, lay at 510 nM. Regarding `Cc1cccc2c1CCNC2=O` [Reference Compound], half-maximal inhibition in data set [1] (IC50) required 110 nM.

With `Cc1cc2ncccc2c(=O)[nH]1` [Compound 4, 7-Methyl-1,6-naphthyridine-5 (6H) -one], in data set [1], the IC50 was 1200 nM.

In data set [1], `O=c1[nH]ccc2c1ccc[n+]2[O-]` [Compound 9, 1,6-Naphthyridine-5(6H)-one, 1-oxide] came in with an IC50 of 10000 to 100000 nM. Still for that read-out and setting: to `O=c1[nH]ccc2c1CCCN2` [Compound 6, 1,2,3,4-Tetrahydro-1,6-naphthyridine-5(6H)-one] belongs 1000 to 10000 nM; to `O=c1[nH]ccc2ncccc12` [Compound 3, 1,6-Naphthyridine-5(6H)-one], 1000 to 10000 nM. In the case of `COCC(O)Cn1ccnc1[N+](=O)[O-]` (stereo not drawn) [misonidazole, α-(methoxymethyl)-2-nitro-1H-imidazole-1-ethanol], the radiosensitizing activity result in the data set on hypoxic tumor cells is listed as “of value as a radiosensitizer for hypoxic tumor cells; also recorded: effective as radiosensitizers for hypoxic cells in vivo”. For the same molecule, in the data set on central nervous system (administered to mice), the CNS side effects entry was “peripheral neuropathy effects and convulsions in mice”. As for `CNC=O` [N-methylformamide], in data set [2], the “sensitization to lethal effects of radiation / inhibition of repair” value was “sensitize tumors to the lethal effects of radiation”.
